From patent US8853261B2, “Nutraceutical composition from Garcinia mangostana” (Laila Nutraceuticals, priority 2008, dated 2014) come the findings set out here.

One test has as its target potato 5-lipoxygenase. Kind of test: 5-Lipoxygenase enzyme inhibitory activity. Format: biochemical. The conditions noted are these: for 5-Lipoxygenase inhibitory activity IC50 values: potato 5-lipoxygenase, linoleic acid substrate. On the procedure:
5-Lipoxygenase enzyme inhibitory activity was measured using the method of Schewe et al. (Adv Enzymol, Vol 58: pp 191-272, 1986), modified by Reddanna et. al., (Methods of Enzymology, Vol 187: pp 268-277, 1990). The assay mixture contained 80 μM linoleic acid and sufficient amount of potato 5-lipoxygenase in 50 mM phosphate buffer (pH 6.3). The reaction was initiated by the addition of enzyme buffer mix to linoleic acid and the enzyme activity was monitored as the increase in absorbance at 234 nm. The reaction was monitored for 120 sec and the inhibitory potential of the test substances was measured by incubating various concentrations of test substances two minutes before the addition of linoleic acid. All assays were performed three times. The IC50 values were calculated from the plot drawn of the concentrations of test substances versus percentage inhibition.

Test [1] has as its system adipocyte fatty acid-binding protein (aP2). Put plainly: Down-regulation of aP2 protein expression in LPS-induced THP-1 derived macrophages (Western blot). Format: cell-based, human. The following applies: 5 μg/ml, 2 h pretreatment, LPS 100 ng/ml 16 h, normalized to actin. How it is done:
The inventors also assessed the effect of α-mangostin and γ-mangostin on adipocyte fatty acid-binding protein aP2 expression in human monocytes-macrophage cells in a cell based in vitro model. In this experiment, THP-1 human monocyte-macrophage cells were pre-treated with 5 μg/ml of γ-mangostin or α-mangostin for 2 h and thereafter primed with LPS to induce the inflammatory response. The cellular proteins were extracted by cell lysis buffer and subjected to immuno-western blot to detect the modulation of expression of aP2 protein.
Down-regulation of aP2 protein expression by α-mangostin and γ-mangostin was evaluated in a cell based in vitro model. […] The protein content was measured by Coomassie blue based Bradford method and equal amount of cellular protein lysates (2 μg) was resolved in 15% SDS-Polyacrylamide gels. […] The aP2 protein expression was specifically detected by chemiluminescent substrate (Pierce, USA); detection of chemiluminescent bands and densitometric analyses were carried out on Kodak 4000 mM image station (supplied by Kodak, USA). The same nitrocellulose blots were stripped and re-probed with anti-actin antibody (Sigma Chemical CO, USA) and actin protein expression was recorded as an indication of equal protein loading in each lane. […]

The subject of the next test is TNF-α. Kind of test: Inhibition of LPS-induced TNF-α in THP-1 human monocytes (EIA). Format: cell-based. The conditions noted are these: THP-1 cells, 2 h pretreatment, 100 ng/ml LPS 4 h. On the procedure:
Inhibition of Tumor necrosis factor-α (TNF-α) in vitro by α-mangostin and γ-mangostin: The anti-inflammatory activities of α-mangostin, γ-mangostin and composition-I were assessed in a cell based in vitro assay. Briefly, THP-1 human monocytes cells were washed and re-suspended in phenol red free Dulbecco's Modified Eagle's Medium (DMEM) supplemented with 1% fetal Bovine serum (FBS). Equal number of cells was added to each well of a 96-well TC plate and the cells were pretreated for 2 h with various concentrations of test substances (ranging from 0.5 to 50 μg/ml; solutions prepared in culture medium from a stock solution containing 50 mg/l mL DMSO of each test compound) of α-mangostin, γ-mangostin and composition-I. The inflammatory response was induced by treatment with 100 ng/ml of LPS for 4 h at 37° C. in presence of 5% CO2. The vehicle control culture wells received 0.1% DMSO in culture medium. The cell culture supernatants were collected and assessed for secretary pro-inflammatory cytokine, TNFα. The TNF-α concentration was quantitatively measured by highly specific and sensitive Enzyme Immuno Assay (EIA) kit supplied by R&D Systems, USA. The enzyme immuno assay was performed based on the protocol provided by the vendor. The inhibitory concentration for 50% inhibition (IC50) of TNF-α was determined from a plot drawn for ingredient concentration against TNF-α level.

“And” between values parts separate entries of the source, which are not always exact repeats. Equal entries are not always repeated. “Also recorded” adds a separate entry of the source.

For `COc1c(O)cc2oc3cc(O)c(CC=C(C)C)c(O)c3c(=O)c2c1CCC(C)(C)O` [Garcinone D], at potato 5-lipoxygenase, the “5-Lipoxygenase inhibitory activity IC50 values” is 5.7 µg/mL.
`COc1c(O)cc2oc3cc(O)c(CC=C(C)C)c(O)c3c(=O)c2c1CC=C(C)C` [α-mangostin]: in test [1], the “Inhibition of LPS induced aP2 protein expression” value is “inhibition of aP2 protein expression”.
For `CC(C)=CCc1c(O)cc2oc3cc(O)c(O)c(CC=C(C)C)c3c(=O)c2c1O` [γ-mangostin], the “Inhibition of LPS induced aP2 protein expression” value in test [1] is “more potent inhibitor of aP2 in vitro compared to α-mangostin; also recorded: inhibited the LPS induced aP2 expression more strongly compared to α-mangostin”. Also, the “5-Lipoxygenase inhibitory activity IC50 values” on potato 5-lipoxygenase turned out to be 0.52 µg/mL. For the same compound, in the test with TNF-α, the “IC50 for TNFα” value was 3.32 µg/mL and 3.322 µg/mL.
Regarding Garcinone C, the “Relative potency of O-demethylxanthone versus O-methyl counterpart” value in the test on potato 5-lipoxygenase (comparison in words) is “relatively higher potency compared to its natural O-methyl counterpart, garcinone D”. In addition, the “5-Lipoxygenase inhibitory activity IC50 values” on potato 5-lipoxygenase was found to be 2.8 µg/mL.
